Assay results from US20150246067A1, “ANTIVIRAL TREATMENT OF LYMPHOMA AND CANCER” (THE REGENTS OF THE UNIVERSITY OF MICHIGAN, priority 2009, published 2015).

test system: HERV K (HML2); assay: Reverse transcriptase activity in supernatants of drug-treated NCCIT cells (Reverse Transcription Assay Kit); type: cell-based, human; settings: 7 days, increasing doses of drug, supernatant, FIGS. 4A-I
Method: HIV antivirals were assayed to determine which antiviral agents have an antiviral effect against HERV K (HML2). The NCCIT cell line derived from a teratocarcinoma produces many HERV K (HML2) viral particles. NCCIT cells were maintained at 40% confluence in 6-well plates in RPMI medium and incubated for 7 days in the presence of increasing doses of nucleoside or non-nucleoside reverse transcriptase inhibitors or HIV protease inhibitors. Drugs, provided as lyophilized powders by the AIDS Research and Reference Reagent Program, were resuspended to a final concentration of 10 mg/mL (except for PFA: 60 mg/mL) in different solvents as recommended (SEE table 1). Cells were incubated for 7 days at increasing doses of drugs or the vehicle of solution as controls. Supernatants were collected and cell debris was removed by centrifugation at 2300 rpm for 20 min. Supernatant was assessed for Reverse Transcriptase Activity using the Reverse Transcription Assay Kit (Invitrogen) as described by the manufacturer. In addition, supernatants were treated with 20 units of DNAse (Roche) for 1 hour at 37° C. and viral RNA was extracted using the Viral RNA mini kit (Qiagen) as described by the manufacturer. The HERV-K type 2 viral load was measured by quantitative Real Time RT-PCR using primers that expand the type-2 env gene region, which is absent in type-1 viruses, Kenv type2F: 5′-[…]-3′ (SEQ ID NO. 1), and Kenv type2R: 5′-[…]-3′ (SEQ ID NO. 2). Standard curves were generated using serial dilutions of in vitro RNA transcripts as external calibrators. In a similar way, quantities of HERV—K type 2 proviruses were measured by Real Time PCR using 500 ng of isolated DNA.

Compound | HERV K (HML2) RT activity
Cc1cn([C@H]2C[C@H](N=[N+]=[N-])[C@@H](CO)O2)c(=O)[nH]c1=O [AZT, Zidovudine] | reduction
Nc1nc(NC2CC2)c2ncn([C@H]3C=C[C@@H](CO)C3)c2n1 [Abacavir] | reduction
Nc1nc(=O)n([C@@H]2CS[C@H](CO)O2)cc1F [FTC, Emtricitabine] | reduction
Cc1cn([C@H]2C=C[C@@H](CO)O2)c(=O)[nH]c1=O [d4T, Stavudine] | reduction
Nc1ccn([C@H]2CC[C@@H](CO)O2)c(=O)n1 [ddC, zalcitabine] | reduction
O=c1[nH]cnc2c1ncn2[C@H]1CC[C@@H](CO)O1 [ddI, Dideoxyinosine] | reduction
CC(C)OC(=O)OCOP(=O)(CO[C@H](C)Cn1cnc2c(N)ncnc21)OCOC(=O)OC(C)C [tenofovir disoproxil, Tenofovir disoproxyl fumarato] | reduction
O=c1nc(NO)ccn1[C@@H]1O[C@H](CO)[C@@H](O)[C@H]1O [β-D hydroxycytidine, β-d hydroxy cytidine] | reduction
